A short description of data set [1]: Chromatographic hydrophobicity index, log D of the compound at pH 7.4 by RP-HPLC analysis. It is filed as physicochemical. The note with it: buffer.
Data set [2] in a line: AUC (0 to infinity) in rat at 2 mg/kg, po. Format: ADME, organism-based. More on the design: dose 2 mg/kg, route oral, time infinity. As to conditions: in vivo.
Data set [3] can be described thus: Half life in rat at 1 mg/kg, iv. Format: ADME, organism-based. As to conditions: in vivo.
Data set [4] is described as follows: Cmax in dog at 2 mg/kg, po. It is filed as ADME, organism-based, Canis lupus familiaris. More on the design: dose 2 mg/kg, route oral. As to conditions: in vivo.
Data set [5] can be described thus: Volume of distribution at steady state in dog at 1.1 mg/kg, iv. Format: ADME, organism-based, Canis lupus familiaris. As to conditions: in vivo, read-out: Vdss.
Data set [6] can be described thus: Metabolic stability in rat hepatocytes in presence of NADPH. Format: ADME, cell-based, Hepatocyte.
A short description of data set [7]: in vivo. The note with it: dog, po, 2 mg/kg.
A short description of data set [8]: AUC in rat at […], po. The note with it: in vivo. It is filed as ADME, organism-based.
Data set [9] in a line: AUC in monkey at […], po. The note with it: rhesus monkey, in vivo. It is filed as ADME, organism-based, Macaca mulatta.
The nature of data set [10]: Metabolic stability in monkey hepatocytes in presence of NADPH. Format: ADME, cell-based, Macaca mulatta, Hepatocyte. The note with it: rhesus monkey.
Data set [11] can be described thus: in vivo. The note with it: rat, po.
Data set [12] in a line: Volume of distribution at steady state in rat at 1 mg/kg, iv. It is filed as ADME, organism-based. The note with it: in vivo, read-out: Vdss.
Data set [13] can be described thus: Clearance in rat at 1 mg/kg, iv relative to liver blood flow. Format: ADME, organism-based. As to conditions: in vivo.
The nature of data set [14]: Cmax in rat at […], po. It is filed as ADME, organism-based. Set-up: dose 2.1 mg/kg, route oral. As to conditions: in vivo.
Data set [15] is described as follows: Clearance in dog at 1.1 mg/kg, iv relative to liver blood flow. The note with it: in vivo. It is filed as ADME, organism-based, Canis lupus familiaris.
Data set [16] in a line: Metabolic stability in human hepatocytes in presence of NADPH. Format: ADME, cell-based, Hepatocyte.
A short description of data set [17]: AUC in dog at 2 mg/kg, po. Format: ADME, organism-based, Canis lupus familiaris. The note with it: in vivo.
Data set [18] can be described thus: Clearance in rat at 1 mg/kg, iv. As to conditions: in vivo. It is filed as ADME, organism-based.
Data set [19] can be described thus: Clearance in dog at 1.1 mg/kg, iv. It is filed as ADME, organism-based, Canis lupus familiaris. As to conditions: in vivo.
The nature of data set [20]: Clearance in monkey at […], iv relative to liver blood flow. Format: ADME, organism-based, Macaca mulatta. As to conditions: rhesus monkey, in vivo.
The nature of data set [21]: Half life in monkey at […], iv. It is filed as ADME, organism-based, Macaca mulatta. As to conditions: rhesus monkey, in vivo.

A word on the logD: it is lipophilicity at a set pH, counting ionised and neutral species. As for `O=C(N[C@H]1COc2ccccc2NC1=O)c1cc(Cc2ccccc2)on1`, the logD in data set [1] is given as 5.1.

As usually defined, the AUC(0-inf) is total exposure, with the tail of the curve extrapolated. Turning to `O=C(N[C@H]1COc2ccccc2NC1=O)c1n[nH]c(Cc2ccccc2)n1`, the AUC(0-inf) in data set [2] worked out at 2500 ng·h/mL. Moreover, the logD in [1] was found to be 3.

The term half-life denotes how long it takes for the measured level to halve. A word on the Cmax: it is the highest concentration seen after dosing. Usually Tmax stands for the time at which the peak concentration occurs. For orientation: AUC means the area under the concentration-time curve, a measure of exposure. One may read the clearance as a measure of how efficiently the substance is removed, as volume per time. `O=C(N[C@H]1CCc2cc(F)cc(F)c2NC1=O)c1n[nH]c(Cc2ccccc2)n1` had a half-life in data set [3] of 132 min. For the same compound, the values for the Cmax in data set [4] and in [14] were 910 ng/mL and 320 ng/mL, respectively. Besides, the Vd in data set [5] was 1.1 L/kg; in [12], 1.8 L/kg. The Stability result in [6], in data set [10] and in data set [16] was “Stable” each time. Further, in data set [2], the total exposure AUC(0-inf) turned out to be 1100 ng·h/mL. Also, the values for the Tmax in the data set “in vivo [7]” and in “in vivo [11]” were 45 min and 49.8 min, respectively. The results for the AUC in [8], in data set [9] and in data set [17] were 1100 ng·h/mL, 4400 ng·h/mL and 2500 ng·h/mL, respectively. Moreover, the results for the CL in data set [13], in [15] and in [20] were 35%, 18% and 15%, respectively. This compound displayed a logD in data set [1] of 3.4. The clearance in [18] turned out to be 27 mL/min/kg; in data set [19], 9.8 mL/min/kg. In data set [21], this compound displayed a t1/2 of 252 min.

`CN1C(=O)[C@@H](NC(=O)c2n[nH]c(Cc3ccccc3)n2)CCc2cc(F)cc(F)c21`: the AUC(0-inf) in data set [2] was 160 ng·h/mL. In data set [1], this compound displayed a logD of 4.3.

In the case of `O=C(N[C@H]1CCc2ccccc2NC1=O)c1n[nH]c(Cc2ccccc2)n1`, in data set [1], the logD came out at 3.1.

The compound `CN1C(=O)[C@@H](NC(=O)c2n[nH]c(Cc3ccccc3)n2)CCc2ccccc21` gave an AUC(0-inf) in [2] of 310 ng·h/mL. For the same compound, the logD in data set [1] came to 3.8.

Source of the values: ChEMBL document CHEMBL4304764, “Identification of a RIP1 Kinase Inhibitor Clinical Candidate (GSK3145095) for the Treatment of Pancreatic Cancer” (ACS Med Chem Lett, 2019).
